{"source": "ChEMBL document CHEMBL3046274", "about": "“Toxicity of imidacloprid to developmental stages of Rhynchophorus ferrugineus (Curculionidae: Coleoptera): Laboratory and field tests” (Crop Prot, 2006)", "key": {"[1]": {"system": "Rhynchophorus ferrugineus", "test": "Pesticidal activity against Rhynchophorus ferrugineus (red palm weevil) cocoon assessed as mortality at 0.5 ppm administered by dipping for 3 min measured at 48 hr post-treatment relative to control", "type": "functional"}, "[2]": {"system": "Rhynchophorus ferrugineus", "test": "Pesticidal activity against Rhynchophorus ferrugineus (red palm weevil) larvae assessed as mortality at 0.5 ppm, po at 18 hr post-treatment relative to control", "type": "functional"}, "[3]": {"system": "Rhynchophorus ferrugineus", "test": "Pesticidal activity against adult Rhynchophorus ferrugineus (red palm weevil) assessed as mortality at 300 ppm administered topically at 18 hr post-treatment", "type": "functional"}, "[4]": {"system": "Rhynchophorus ferrugineus", "test": "Pesticidal activity against Rhynchophorus ferrugineus (red palm weevil) cocoon assessed as mortality at 2 ppm administered by dipping for 3 min measured at 90 hr post-treatment relative to control", "type": "functional"}, "[5]": {"system": "Rhynchophorus ferrugineus", "test": "Pesticidal activity against Rhynchophorus ferrugineus (red palm weevil) larvae infested date palm tree assessed as reduction in mandibles movement of collected live stage larvae at 20 ml/4l of water applied through soil-drench irrigation measured after 3 weeks relative to control", "type": "functional, organism-based"}, "[6]": {"system": "Rhynchophorus ferrugineus", "test": "Pesticidal activity against Rhynchophorus ferrugineus (red palm weevil) cocoon assessed as mortality at 0.5 ppm administered by dipping for 3 min measured at 72 hr post-treatment relative to control", "type": "functional"}, "[7]": {"system": "Rhynchophorus ferrugineus", "test": "Pesticidal activity against Rhynchophorus ferrugineus (red palm weevil) larvae assessed as mortality at 500 ppm administered topically at 72 hr post-treatment", "type": "functional"}, "[8]": {"system": "Rhynchophorus ferrugineus", "test": "Pesticidal activity against Rhynchophorus ferrugineus (red palm weevil) larvae infested date palm trees assessed as mortality at 2.5 ml/l applied through soil-drench irrigation 1 week after infestation measured on day 20 post-treatment relative to control", "type": "functional"}, "[9]": {"system": "Rhynchophorus ferrugineus", "test": "Contact toxicity against Rhynchophorus ferrugineus (red palm weevil) adults assessed as time required for 100% reversible knockdown at 1.5 ml/l for 2 min", "type": "functional"}, "[10]": {"system": "Rhynchophorus ferrugineus", "test": "Pesticidal activity against Rhynchophorus ferrugineus (red palm weevil) larvae assessed as mortality at 4 ppm, po at 24 hr post-treatment relative to control", "type": "functional"}, "[11]": {"system": "Rhynchophorus ferrugineus", "test": "Pesticidal activity against Rhynchophorus ferrugineus (red palm weevil) cocoon assessed as mortality at 4 ppm administered by dipping for 3 min measured at 18 hr post-treatment relative to control", "type": "functional"}, "[12]": {"system": "Rhynchophorus ferrugineus", "test": "Pesticidal activity against Rhynchophorus ferrugineus (red palm weevil) cocoon assessed as mortality at 4 ppm administered by dipping for 3 min measured at 48 hr post-treatment relative to control", "type": "functional"}, "[13]": {"system": "Rhynchophorus ferrugineus", "test": "Pesticidal activity against Rhynchophorus ferrugineus (red palm weevil) cocoon assessed as mortality at 20 ppm administered by dipping for 3 min measured at 114 hr post-treatment relative to control", "type": "functional"}, "[14]": {"system": "Rhynchophorus ferrugineus", "test": "Pesticidal activity against adult Rhynchophorus ferrugineus (red palm weevil) assessed as mortality at 1000 ppm administered topically at 72 hr post-treatment", "type": "functional"}, "[15]": {"system": "Rhynchophorus ferrugineus", "test": "Pesticidal activity against adult Rhynchophorus ferrugineus (red palm weevil) assessed as mortality at 2 ppm, po at 90 hr post-treatment relative to control", "type": "functional"}, "[16]": {"system": "Rhynchophorus ferrugineus", "test": "Pesticidal activity against adult Rhynchophorus ferrugineus (red palm weevil) assessed as time required for 100% mortality at 1.5 ml/l administered topically", "type": "functional"}, "[17]": {"system": "Rhynchophorus ferrugineus", "test": "Pesticidal activity against Rhynchophorus ferrugineus (red palm weevil) cocoon assessed as mortality at 2 ppm administered by dipping for 3 min measured at 24 hr post-treatment relative to control", "type": "functional"}, "[18]": {"system": "Rhynchophorus ferrugineus", "test": "Pesticidal activity against Rhynchophorus ferrugineus (red palm weevil) cocoon assessed as mortality at 4 ppm administered by dipping for 3 min measured at 72 hr post-treatment relative to control", "type": "functional"}, "[19]": {"system": "Rhynchophorus ferrugineus", "test": "Pesticidal activity against adult Rhynchophorus ferrugineus (red palm weevil) assessed as mortality at 500 ppm administered topically at 18 hr post-treatment", "type": "functional"}, "[20]": {"system": "Rhynchophorus ferrugineus", "test": "Pesticidal activity against Rhynchophorus ferrugineus (red palm weevil) cocoons assessed as time required for total mortality at 2.5 ml/l administered by dipping for 5 secs", "type": "functional"}, "[21]": {"system": "Rhynchophorus ferrugineus", "test": "Contact toxicity against Rhynchophorus ferrugineus (red palm weevil) adults assessed as time required for 50% mortality at 3.5 ml/l for 2 min", "type": "functional"}, "[22]": {"system": "Rhynchophorus ferrugineus", "test": "Pesticidal activity against Rhynchophorus ferrugineus (red palm weevil) larvae assessed as mortality at 1 ppm, po at 48 hr post-treatment relative to control", "type": "functional"}, "[23]": {"system": "Rhynchophorus ferrugineus", "test": "Pesticidal activity against Rhynchophorus ferrugineus (red palm weevil) larvae assessed as mortality at 100 ppm administered topically at 18 hr post-treatment", "type": "functional"}, "[24]": {"system": "Rhynchophorus ferrugineus", "test": "Contact toxicity against Rhynchophorus ferrugineus (red palm weevil) adults assessed as time required for 100% mortality at 2.5 ml/l for 2 min", "type": "functional"}, "[25]": {"system": "Rhynchophorus ferrugineus", "test": "Contact toxicity against Rhynchophorus ferrugineus (red palm weevil) adults assessed as time required for 50% reversible knockdown at 2.5 ml/l for 5 min", "type": "functional"}, "[26]": {"system": "Rhynchophorus ferrugineus", "test": "Pesticidal activity against Rhynchophorus ferrugineus (red palm weevil) larvae assessed as mortality at 1 ppm, po at 18 hr post-treatment relative to control", "type": "functional"}, "[27]": {"system": "Rhynchophorus ferrugineus", "test": "Pesticidal activity against Rhynchophorus ferrugineus (red palm weevil) larvae assessed as mortality at 4 ppm, po at 72 hr post-treatment relative to control", "type": "functional"}, "[28]": {"system": "Rhynchophorus ferrugineus", "test": "Pesticidal activity against adult Rhynchophorus ferrugineus (red palm weevil) infested date palm tree assessed as mortality of collected live stage at 20 ml/4l of water applied through soil-drench irrigation measured after 3 weeks relative to control", "type": "functional"}, "[29]": {"system": "Rhynchophorus ferrugineus", "test": "Pesticidal activity against adult Rhynchophorus ferrugineus (red palm weevil) assessed as mortality at 1.5 ppm, po at 24 hr post-treatment relative to control", "type": "functional"}, "[30]": {"system": "Rhynchophorus ferrugineus", "test": "Contact toxicity against Rhynchophorus ferrugineus (red palm weevil) adults assessed as time required for 100% reversible knockdown at 2.5 ml/l for 2 min", "type": "functional"}, "[31]": {"system": "Rhynchophorus ferrugineus", "test": "Pesticidal activity against adult Rhynchophorus ferrugineus (red palm weevil) assessed as mortality at 500 ppm administered topically at 48 hr post-treatment", "type": "functional"}, "[32]": {"system": "Rhynchophorus ferrugineus", "test": "Pesticidal activity against Rhynchophorus ferrugineus (red palm weevil) cocoon assessed as mortality at 20 ppm administered by dipping for 3 min measured at 24 hr post-treatment relative to control", "type": "functional"}, "[33]": {"system": "Rhynchophorus ferrugineus", "test": "Pesticidal activity against Rhynchophorus ferrugineus (red palm weevil) cocoons assessed as time required for total mortality at 2.5 ml/l administered by dipping for 10 secs", "type": "functional"}, "[34]": {"system": "Rhynchophorus ferrugineus", "test": "Pesticidal activity against Rhynchophorus ferrugineus (red palm weevil) cocoons assessed as time required for total mortality at 1.5 ml/l administered by dipping for 5 secs", "type": "functional"}, "[35]": {"system": "Rhynchophorus ferrugineus", "test": "Pesticidal activity against Rhynchophorus ferrugineus (red palm weevil) larvae assessed as mortality at 1.5 ppm, po at 90 hr post-treatment relative to control", "type": "functional"}, "[36]": {"system": "Rhynchophorus ferrugineus", "test": "Pesticidal activity against adult Rhynchophorus ferrugineus (red palm weevil) assessed as mortality at 1 ppm, po at 114 hr post-treatment relative to control", "type": "functional"}, "[37]": {"system": "Rhynchophorus ferrugineus", "test": "Contact toxicity against Rhynchophorus ferrugineus (red palm weevil) adults assessed as time required for 100% reversible knockdown at 3.5 ml/l for 2 min", "type": "functional"}, "[38]": {"system": "Rhynchophorus ferrugineus", "test": "Pesticidal activity against Rhynchophorus ferrugineus (red palm weevil) larvae assessed as mortality at 500 ppm administered topically at 36 hr post-treatment", "type": "functional"}, "[39]": {"system": "Rhynchophorus ferrugineus", "test": "Pesticidal activity against Rhynchophorus ferrugineus (red palm weevil) cocoon assessed as mortality at 0.5 ppm administered by dipping for 3 min measured at 24 hr post-treatment relative to control", "type": "functional"}, "[40]": {"system": "Rhynchophorus ferrugineus", "test": "Pesticidal activity against Rhynchophorus ferrugineus (red palm weevil) larvae assessed as mortality at 2 ppm, po at 24 hr post-treatment relative to control", "type": "functional"}, "[41]": {"system": "Rhynchophorus ferrugineus", "test": "Pesticidal activity against adult Rhynchophorus ferrugineus (red palm weevil) assessed as mortality at 1 ppm, po at 48 hr post-treatment relative to control", "type": "functional"}}, "note": "Calls of active or inactive are those of the source. The rule behind the calls is not given here."}
{"smiles": "O=[N+]([O-])/N=C1\\NCCN1Cc1ccc(Cl)nc1", "note": "[IMIDACLOPRID]", "values": [{"measurement": "Activity", "setting": "[1]", "value": 0, "unit": "%"}, {"measurement": "Activity", "setting": "[2]", "value": 0, "unit": "%"}, {"measurement": "Activity", "setting": "[3]", "value": 72.2, "unit": "%"}, {"measurement": "Activity", "setting": "[4]", "value": 72.2, "unit": "%"}, {"measurement": "Activity", "setting": "[5]", "value": "Active"}, {"measurement": "Activity", "setting": "[6]", "value": 0, "unit": "%"}, {"measurement": "Activity", "setting": "[7]", "value": 72.2, "unit": "%"}, {"measurement": "Activity", "setting": "[8]", "value": 100, "unit": "%"}, {"measurement": "Time", "setting": "[9]", "value": 9, "unit": "days"}, {"measurement": "Activity", "setting": "[10]", "value": 100, "unit": "%"}, {"measurement": "Activity", "setting": "[11]", "value": 0, "unit": "%"}, {"measurement": "Activity", "setting": "[12]", "value": 44.4, "unit": "%"}, {"measurement": "Activity", "setting": "[13]", "value": 100, "unit": "%"}, {"measurement": "Activity", "setting": "[14]", "value": 100, "unit": "%"}, {"measurement": "Activity", "setting": "[15]", "value": 100, "unit": "%"}, {"measurement": "Time", "setting": "[16]", "value": 11.5, "unit": "days"}, {"measurement": "Activity", "setting": "[17]", "value": 0, "unit": "%"}, {"measurement": "Activity", "setting": "[18]", "value": 44.4, "unit": "%"}, {"measurement": "Activity", "setting": "[19]", "value": 66.7, "unit": "%"}, {"measurement": "Time", "setting": "[20]", "value": 9.5, "unit": "days"}, {"measurement": "Time", "setting": "[21]", "value": 4.1, "unit": "days"}, {"measurement": "Activity", "setting": "[22]", "value": 38.9, "unit": "%"}, {"measurement": "Activity", "setting": "[23]", "value": 0, "unit": "%"}, {"measurement": "Time", "setting": "[24]", "value": 13.1, "unit": "days"}, {"measurement": "Time", "setting": "[25]", "value": 1.1, "unit": "days"}, {"measurement": "Activity", "setting": "[26]", "value": 0, "unit": "%"}, {"measurement": "Activity", "setting": "[27]", "value": 100, "unit": "%"}, {"measurement": "Activity", "setting": "[28]", "value": 100, "unit": "%"}, {"measurement": "Activity", "setting": "[29]", "value": 72.2, "unit": "%"}, {"measurement": "Time", "setting": "[30]", "value": 7.1, "unit": "days"}, {"measurement": "Activity", "setting": "[31]", "value": 72.2, "unit": "%"}, {"measurement": "Activity", "setting": "[32]", "value": 0, "unit": "%"}, {"measurement": "Time", "setting": "[33]", "value": 9.6, "unit": "days"}, {"measurement": "Time", "setting": "[34]", "value": 14.5, "unit": "days"}, {"measurement": "Activity", "setting": "[35]", "value": 100, "unit": "%"}, {"measurement": "Activity", "setting": "[36]", "value": 72.2, "unit": "%"}, {"measurement": "Time", "setting": "[37]", "value": 3.2, "unit": "days"}, {"measurement": "Activity", "setting": "[38]", "value": 38.9, "unit": "%"}, {"measurement": "Activity", "setting": "[39]", "value": 0, "unit": "%"}, {"measurement": "Activity", "setting": "[40]", "value": 100, "unit": "%"}, {"measurement": "Activity", "setting": "[41]", "value": 38.9, "unit": "%"}]}
